Reference: DBAASP
In brackets after ≈: the same amount, converted by molar mass. Blank lines part the entries; values can stand above or below the molecule they belong to.

Legend:
Experiment in all cases: ≥ marks a high value that may be exact or a test limit, other limits are often not marked, values filed in µg/mL are converted to µM
[1] = tested on: Acinetobacter johnsonii NCDC 0072
[2] = tested on: Bacillus cereus NCDC 0240
[3] = tested on: Escherichia coli MTCC 0723
[4] = tested on: Listeria monocytogenes ATCC 19111
[5] = tested on: Pseudomonas aeruginosa ATCC 27853
[6] = tested on: Pseudomonas aeruginosa NCDC 0105
[7] = tested on: Salmonella enterica subsp. enterica serovar Typhimurium ATCC 14028
[8] = tested on: Staphylococcus aureus ATCC 29213
[9] = tested on: Staphylococcus aureus NCDC 0111
Aerococcus viridans = tested on: Aerococcus viridans
[10] = tested on: Escherichia coli ATCC 25922
Escherichia coli O111 = tested on: Escherichia coli O111
Klebsiella pneumoniae = tested on: Klebsiella pneumoniae
Pseudomonas aeruginosa = tested on: Pseudomonas aeruginosa
Rothia nasimurium = tested on: Rothia nasimurium
Staphylococcus sciuri = tested on: Staphylococcus sciuri
[11] = tested on: Alicyclobacillus acidoterrestris CICC 10374
Bacillus cereus AS1.1846 = tested on: Bacillus cereus AS1.1846
[12] = tested on: Bacillus megaterium CICC 10448
[13] = tested on: Bacillus pumilus CMCC 63202
[14] = tested on: Bacillus subtilis ATCC 9943
[15] = tested on: Clostridioides difficile CICC 22951
[16] = tested on: Clostridium perfringens CICC 22949
[17] = tested on: Clostridium sporogenes CICC 10385
[18] = tested on: Geobacillus stearothermophilus CICC 20139
[19] = tested on: Micrococcus luteus CMCC 28000
[20] = tested on: Paenibacillus polymyxa CGMCC 4314
[21] = tested on: Proteus mirabilis CMCC 49005
[22] = tested on: Pseudomonas fluorescens AS1.1802
[23] = tested on: Salmonella enterica subsp. enterica serovar Enteritidis CICC 21527
[24] = tested on: Salmonella enterica subsp. enterica serovar Paratyphi A CICC 21501
[25] = tested on: Salmonella enterica subsp. enterica serovar Paratyphi B CICC 21495
[26] = tested on: Salmonella typhimurium CMCC 51005
[27] = tested on: Serratia marcescens CICC 10187
[28] = tested on: Shigella flexneri CMCC 51571
[29] = tested on: Staphylococcus aureus CMCC 26003
[30] = tested on: Enterococcus faecalis V583
Alternaria brassicicola = tested on: Alternaria brassicicola
Ascochyta pisi = tested on: Ascochyta pisi
Bacillus megaterium = tested on: Bacillus megaterium
Bacillus subtilis = tested on: Bacillus subtilis
Botrytis cinerea = tested on: Botrytis cinerea
Enterobacter cloacae = tested on: Enterobacter cloacae
Escherichia coli 1106 = tested on: Escherichia coli 1106
Escherichia coli D22 = tested on: Escherichia coli D22
Escherichia coli D31 = tested on: Escherichia coli D31
Fusarium culmorum = tested on: Fusarium culmorum
Fusarium haematococcum = tested on: Fusarium haematococcum
Fusarium oxysporum = tested on: Fusarium oxysporum
Micrococcus luteus = tested on: Micrococcus luteus
Neurospora crassa = tested on: Neurospora crassa
[31] = tested on: Pectobacterium carotovorum
Pediococcus acidilactici = tested on: Pediococcus acidilactici
Salmonella typhimurium = tested on: Salmonella typhimurium
Trichoderma viride = tested on: Trichoderma viride

SMILES: CC[C@H](C)[C@H](NC(=O)[C@H](CO)NC(=O)[C@H](Cc1c[nH]c2ccccc12)NC(=O)[C@@H]1CCCN1C(=O)[C@@H](NC(=O)[C@H](C)N)[C@@H](C)CC)C(=O)N[C@@H](Cc1c[nH]c2ccccc12)C(=O)N[C@@H](Cc1c[nH]c2ccccc12)C(=O)N[C@@H](Cc1cnc[nH]1)C(=O)N[C@@H](CC(C)C)C(=O)N[C@@H](CC(C)C)C(=O)N[C@@H](Cc1ccccc1)C(=O)N[C@@H](CCCCN)C(=O)NCC(=O)O [AIPWSIWWHLLFKG]
MIC [1]: 25 µM (≈ 43.9 µg/mL) | MIC [2]: ≥ 50 µM | MIC [3]: ≥ 50 µM | MIC [4]: 1.5 µM (≈ 2.63 µg/mL) | MIC [5]: 200 µM (≈ 351 µg/mL) | MIC [6]: ≥ 200 µM | MIC [7]: 3 µM (≈ 5.26 µg/mL) | MIC [8]: 0.8 µM (≈ 1.4 µg/mL) | MIC [9]: 12.5 µM (≈ 21.9 µg/mL)

SMILES: N[C@@H](CC(=O)O)C(=O)N[C@@H](CCC(=O)O)C(=O)N[C@@H](CC(=O)O)C(=O)N[C@@H](CC(=O)O)C(=O)N[C@@H](CC(=O)O)C(=O)O [DEDDD]
MIC (Aerococcus viridans): ≥ 32.9 µM | MIC [10]: 82.3 µM (≈ 50 µg/mL) | MIC (Escherichia coli O111): ≥ 82.3 µM | MIC (Klebsiella pneumoniae): 82.3 µM (≈ 50 µg/mL) | MIC (Pseudomonas aeruginosa): 82.3 µM (≈ 50 µg/mL) | MIC (Rothia nasimurium): 16.5 µM (≈ 10 µg/mL) | MIC [8]: 16.5 µM (≈ 10 µg/mL) | MIC (Staphylococcus sciuri): ≥ 82.3 µM

SMILES: CC[C@H](C)[C@H](NC(=O)[C@@H](NC(=O)[C@@H]1CCCN1C(=O)[C@@H](NC(=O)[C@@H]1CCCN1C(=O)[C@@H](N)CCCCN)C(C)C)[C@@H](C)CC)C(=O)N[C@@H](Cc1ccc(O)cc1)C(=O)N[C@H]1CSSC[C@@H](C(=O)N[C@@H](CCC(N)=O)C(=O)N[C@@H](CCCN=C(N)N)C(=O)N[C@@H](CCSC)C(=O)O)NC(=O)[C@H](CCCCN)NC(=O)CNC(=O)[C@H]([C@@H](C)O)NC(=O)[C@H](CCCN=C(N)N)NC(=O)[C@H](CCCN=C(N)N)NC(=O)[C@H](CC(N)=O)NC1=O [KPVPIIYCNRRTGKCQRM]
MIC (Aerococcus viridans): 0.849 µM (≈ 1.83 µg/mL) | MIC (Alternaria brassicicola): 3.54 µM (≈ 7.64 µg/mL) | MIC (Ascochyta pisi): 14.1 µM (≈ 30.6 µg/mL) | MIC (Bacillus megaterium): 3.54 µM (≈ 7.64 µg/mL) | MIC (Bacillus subtilis): 28.3 µM (≈ 61.1 µg/mL) | MIC (Botrytis cinerea): 1.73 µM (≈ 3.74 µg/mL) | MIC (Enterobacter cloacae): 1.73 µM (≈ 3.74 µg/mL) | MIC (Escherichia coli 1106): 0.849 µM (≈ 1.83 µg/mL) | MIC (Escherichia coli D22): 0.424 µM (≈ 0.917 µg/mL) | MIC (Escherichia coli D31): 0.424 µM (≈ 0.917 µg/mL) | MIC (Fusarium culmorum): 7.07 µM (≈ 15.3 µg/mL) | MIC (Fusarium haematococcum): 7.07 µM (≈ 15.3 µg/mL) | MIC (Fusarium oxysporum): 28.3 µM (≈ 61.1 µg/mL) | MIC (Klebsiella pneumoniae): 1.73 µM (≈ 3.74 µg/mL) | MIC (Micrococcus luteus): 1.73 µM (≈ 3.74 µg/mL) | MIC (Neurospora crassa): 3.54 µM (≈ 7.64 µg/mL) | MIC [31]: 28.3 µM (≈ 61.1 µg/mL) | MIC (Pediococcus acidilactici): 28.3 µM (≈ 61.1 µg/mL) | MIC (Pseudomonas aeruginosa): 28.3 µM (≈ 61.1 µg/mL) | MIC (Salmonella typhimurium): 1.73 µM (≈ 3.74 µg/mL) | MIC (Trichoderma viride): 3.54 µM (≈ 7.64 µg/mL)

The remaining lines, values ahead:

MIC [11]: 15.3 µM (≈ 16 µg/mL) | MIC (Bacillus cereus AS1.1846): 15.3 µM (≈ 16 µg/mL) | MIC [12]: 15.3 µM (≈ 16 µg/mL) | MIC [13]: 15.3 µM (≈ 16 µg/mL) | MIC [14]: 15.3 µM (≈ 16 µg/mL) | MIC [15]: 30.6 µM (≈ 32 µg/mL) | MIC [16]: 30.6 µM (≈ 32 µg/mL) | MIC [17]: 30.6 µM (≈ 32 µg/mL) | MIC [10]: 61.3 µM (≈ 64 µg/mL) | MIC [18]: 30.6 µM (≈ 32 µg/mL) | MIC [19]: 15.3 µM (≈ 16 µg/mL) | MIC [20]: 15.3 µM (≈ 16 µg/mL) | MIC [21]: 15.3 µM (≈ 16 µg/mL) | MIC [22]: 15.3 µM (≈ 16 µg/mL) | MIC [23]: 15.3 µM (≈ 16 µg/mL) | MIC [24]: 15.3 µM (≈ 16 µg/mL) | MIC [25]: 15.3 µM (≈ 16 µg/mL) | MIC [26]: 30.6 µM (≈ 32 µg/mL) | MIC [27]: 15.3 µM (≈ 16 µg/mL) | MIC [28]: 30.6 µM (≈ 32 µg/mL) | MIC [29]: 15.3 µM (≈ 16 µg/mL)
SMILES: CSCC[C@H](NC(=O)[C@H](CCCCN)NC(=O)[C@H](CCC(N)=O)NC(=O)[C@H](Cc1c[nH]c2ccccc12)NC(=O)[C@@H](N)Cc1ccccc1)C(=O)N[C@@H](CO)C(=O)N[C@@H](Cc1ccccc1)C(=O)N[C@@H](C)C(=O)O [FWQKMSFA]

MIC [30]: ≥ 133 µM
SMILES: CC[C@H](C)[C@H](N)C(=O)N[C@H](C(=O)N[C@@H](CO)C(=O)N[C@@H](CO)C(=O)N[C@@H](CCSC)C(=O)N[C@@H](Cc1ccccc1)C(=O)N[C@H](C(=O)N[C@@H](CO)C(=O)N[C@@H](C)C(=O)O)C(C)C)C(C)C [IVSSMFVSA]
